# Biological target: FXa (Homo sapiens, UniProt P00742)
# Assay: Inhibition of factor Xa (FXa-IC50)
# Type: biochemical
# Text: The inhibition of factor Xa by the compounds according to the invention and the measurement of the anticoagulant and antithrombotic activity can be determined by conventional in-vitro or in-vivo methods. A suitable method is described, for example, by J. Hauptmann et al. in Thrombosis and Haemostasis 1990, 63, 220-223.
# The inhibition of factor Xa can be measured, for example by the method of T. Hara et al. in Thromb. Haemostas. 1994, 71, 314-319.
# Sequence of FXa (P00742 235-488 limits assumed): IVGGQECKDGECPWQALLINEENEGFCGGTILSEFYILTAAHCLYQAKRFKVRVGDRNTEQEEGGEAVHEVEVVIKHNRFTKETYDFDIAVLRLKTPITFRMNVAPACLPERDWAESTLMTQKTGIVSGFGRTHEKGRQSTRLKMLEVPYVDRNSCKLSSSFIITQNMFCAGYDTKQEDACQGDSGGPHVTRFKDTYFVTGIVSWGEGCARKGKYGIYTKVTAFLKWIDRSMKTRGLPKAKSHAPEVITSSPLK
# Sequence of FXa (P00742 41-179 limits assumed): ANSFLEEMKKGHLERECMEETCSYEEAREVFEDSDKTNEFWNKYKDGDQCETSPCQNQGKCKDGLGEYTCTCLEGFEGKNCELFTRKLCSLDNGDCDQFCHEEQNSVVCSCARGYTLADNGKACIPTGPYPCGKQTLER
row,IC50,Compound
1,0.054 µM,"CN(C(=O)CN1CCOCC1)c1ccc(NC(=O)[C@H]2C[C@@H](O)CN2C(=O)Nc2ccc(Cl)cc2)cc1 [Compound A1-1, 1-N-(4-chlorophenyl)-2-N-{4-[(2-(morpholin-4-yl)ethanoyl)methylamino]phenyl}-(2R,4R)-4-hydroxypyrrolidine-1,2-dicarboxamide]"
2,0.037 µM,"CN(C(=O)CN1CCC(O)CC1)c1ccc(NC(=O)[C@H]2C[C@@H](O)CN2C(=O)Nc2ccc(Cl)cc2)cc1 [Compound A1-2, 1-N-(4-chlorophenyl)-2-N-{4-[(2-(4-hydroxypiperidin-1-yl)ethanoyl)-methylamino]phenyl}-(2R,4R)-4-hydroxypyrrolidine-1,2-dicarboxamide]"
3,0.017 µM,"CCNCC(=O)N(C)c1ccc(NC(=O)[C@H]2C[C@@H](O)CN2C(=O)Nc2ccc(Cl)cc2)cc1 [Compound A3, 1-N-(4-Chlorophenyl)-2-N-{4-[(2-ethylaminoethanoyl)methylamino]-phenyl}-(2R,4R)-4-hydroxypyrrolidine-1,2-dicarboxamide]"

# System: not given
# Assay: not given
row,melting point,Compound
1,95 °C,"CN(C)CC(=O)N(C)c1ccc(NC(=O)[C@H]2C[C@@H](O)CN2C(=O)Nc2ccc(Cl)cc2)cc1 [Compound A1, 1-N-(4-Chlorophenyl)-2-N-{4-[(2-dimethylaminoethanoyl)methylamino]-phenyl}-(2R,4R)-4-hydroxypyrrolidine-1,2-dicarboxamide]"
2,121 °C,"CCNCC(=O)N(C)c1ccc(NC(=O)[C@H]2C[C@@H](O)CN2C(=O)Nc2ccc(Cl)cc2)cc1 [Compound A3, 1-N-(4-Chlorophenyl)-2-N-{4-[(2-ethylaminoethanoyl)methylamino]-phenyl}-(2R,4R)-4-hydroxypyrrolidine-1,2-dicarboxamide]"
3,84 °C,"COCC(=O)N(C)c1ccc(NC(=O)[C@H]2C[C@@H](O)CN2C(=O)Nc2ccc(Cl)cc2)cc1 [Compound A4, 1-N-(4-Chlorophenyl)-2-N-{4-[(2-methoxyethanoyl)methylamino]phenyl}-(2R,4R)-4-hydroxypyrrolidine-1,2-dicarboxamide]"
